According to US20090143430A1, “ERYTHROPOIETIN PRODUCTION ACCELERATOR” (Kowa Co., Ltd., priority 2002, published 2009):
Counter-ions that a name gives are not always drawn.

What was measured:
[1] = test system: human EPO promoter; experiment: EPO promoter activity, luciferase reporter in Hep3B cells, 1% O2 vs 21% O2 (Test Example 1); type: cell-based; details: 24 hrs
Description: (§1) Hep3B cells producing EPO under hypoxic condition were used. The cells were inoculated onto a 100 mm petri dish by 1.5-3.0×10^6. As a culture medium, 10 ml of Dulbecco's Modified Eagles' Medium (DMEM)/10% Fetal Calf Serum (FCS) was used. The next day, the culture medium was exchanged, and compound of Preparation Example 13 (final concentration: 100 nM) was added, then cells were cultured under 1% O2 at 37° C. for 24 hrs. Groups were prepared in which IL-1β (final concentration: 15 U/ml) or TNF-α (final concentration: 220 U/ml), of which EPO production suppressing action is known (Faquin W C, Schneider T J, Goldgerg M A, Blood, 79(8): 1987-94 (1992)), were used solely or in combination with compound of Preparation Example 13 (final concentration: 100 nM). […] The amount of EPO in the supernatant obtained after the culture was measured by ELISA (each group; n=3). The enhancer site and promoter site (144 bp) of a human EPO gene were linked to luciferase reporter vector, which was used for measuring the EPO promoter activity. The EPO promoter activity was evaluated as follows.
1×10^6 Hep3B cells were inoculated on 30 mm petri dish (4 mL:DMEM/10% FCS), and a reporter gene (2 μg) as well as P-galactosidase gene (1 μg) as an internal standard were transfected into the cells by the lipofectin method. The next day, the culture medium was exchanged and the groups, whose group-composition was similar to the above (control group (containing no agents), IL-1β group (final concentration: 15 U/ml), TNF-α (final concentration: 220 U/ml), compound of Preparation Example 13 (final concentration: 100 nM), or a combination of compound of Preparation Example 13 and IL-1β or TNF-α) were cultured under 1% O2 or 21% O2 (as a control) at 37° C. for 24 hrs (for each group; n=4). The extract of the cells after cultured were prepared, then luciferase activity and β galactosidase activity were measured. The EPO promoter activity was expressed by the formula: […]
(§2) The data obtained were analyzed and evaluated by Student's t-test.

[2] = test system: Hep3B cells; experiment: EPO protein produced by Hep3B cells under hypoxia (1% O2), ELISA (Test Example 1); type: cell-based; details: 1% O2, 24 hrs
Description: as §1, §2

[3] = test system: anemia model mice; experiment: In vivo mice anemia model with IL-1β or TNF-α suppressed EPO production (Test Example 3); parameters: species or system mouse
Description: ICR mice (available from CLEA Japan Inc.) were made to be anemia by taking blood samples by 0.3 mL at a time from the orbital vein of the mouse by use of a heparin-coated microcapillary by 4 times in every 12 hours from 2 days before administering the agents. Further, 1.67×10^4 unit/day of mouse IL-1β (Roche Diagnostics) or 3.33×10^5 unit/day of mouse TNF-α (Roche Diagnostics) was injected intraperitoneally on day 0-3 (the first day of administration of agents was defined as […]) to induce a suppressed condition of EPO production. To these mice, Preparation Example 13 compound dissolved in 50% polyethylene glycol solution was administered orally by 1 or 3 mg/kg/day on day 0-5. As a control, 50% polyethylene glycol solution was administered (each group; n=7-15). On day 3 and 6, 0.3 mL of blood was collected, and hematocrit (Ht) value, hemoglobin (Hb) concentration (Celltac a: NIHON KOHDEN), EPO amount (ELISA kit: Roche Diagnostics) were measured. Also, the blood was stained by methylene-blue, and smears were prepared to calculate Reticulocytes value.

[4] = test system: Hep3B cells; experiment: EPO produced in Hep3B cell culture medium under 1% oxygen, ELISA kit (Test Example 2); type: cell-based; details: 24 hrs, 100 nM, control 8.1
Description: Hep3B cells were inoculated by 1×10^6 on each of 6 cm dishes, and then cultured for 24 hrs. As a culture medium, 3 mL of DMEM/10% FCS was used. The culture medium was exchanged and the compounds of each of Preparation Examples 13, 23, 29, 36, and 114 were added such that the content thereof was 100 nM final concentration, and they were transferred into the atmosphere of 1% oxygen at 37° C. for further 24 hrs culture thereof. The supernatant of the culture was recovered, and the amount of EPO was measured by ELISA kit (product of Roche Diagnostics) (two cases in each group). Further, cell extract was prepared and protein amount was determined, and corrected it as production amount per protein amount. As a control, groups not containing the compounds are prepared.

[5] = day 3, IL-1β mice, compound 1 mg/kg/day
[6] = day 3, IL-1β mice, compound 3 mg/kg/day
[7] = day 3, IL-1β mice, compound oral 1 mg/kg/day
[8] = day 3, IL-1β mice, compound oral 3 mg/kg/day
[9] = day 3, TNF-α mice, compound 1 mg/kg/day
[10] = day 3, TNF-α mice, compound 3 mg/kg/day
[11] = day 3, TNF-α mice, compound oral 1 mg/kg/day
[12] = day 3, TNF-α mice, compound oral 3 mg/kg/day
[13] = day 6, IL-1β mice, compound oral 1 mg/kg/day
[14] = day 6, IL-1β mice, compound oral 3 mg/kg/day
[15] = day 6, TNF-α mice, compound oral 1 mg/kg/day
[16] = day 6, TNF-α mice, compound oral 3 mg/kg/day

## COc1ccc(N(Cc2cncc(-c3cc(OC)c(OC)c(OC)c3)c2)C2CCN(Cc3ccnc(-c4cc(OC)c(OC)c(OC)c4)c3)CC2)cc1 [Preparation Example 13, 4-[N-(4-methoxyphenyl)-N-[[5-(3,4,5-trimethoxyphenyl)pyridin-3-yl]methyl]amino]1-[[2-(3,4,5-trimethoxyphenyl)pyridin-4-yl]methyl]piperidine Trihydrochloride]
[1]; compound 100 nM alone
  human EPO promoter activity (HI): 46.1±5.9 fold
[1]; compound 100 nM with IL-1β 15 U/ml
  human EPO promoter activity (HI): 45.5±7.1 fold
[1]; compound 100 nM with TNF-α 220 U/ml
  human EPO promoter activity (HI): 49.5±5.4 fold
[2]; compound 100 nM
  amount of the produced EPO protein relative to control: twice as much as the control
[2]; compound 100 nM alone
  amount of the produced EPO protein: 829.8±119.0 mU/mg protein
[2]; compound 100 nM in combination with IL-1β 15 U/ml
  amount of the produced EPO protein: 395.0±72.6 mU/mg protein
[2]; compound 100 nM in combination with TNF-α 220 U/ml
  amount of the produced EPO protein: 284.8±24.2 mU/mg protein
[3]; [5]
  EPO amount in serum: 41.8±28.3 mU/mL
  reticulocyte value: 36.1±4.5%
[3]; [6]
  EPO amount in serum: 58.9±21.1 mU/mL
  reticulocyte value: 38.1±8.1%
[3]; [7]
  Hb amount: 12.7 ± 0.7 g/dL
  Ht value: 37.5±2.5%
[3]; [8]
  Hb amount: 12.6 ± 1.0 g/dL
  Ht value: 37.5±3.1%
[3]; [9]
  EPO amount in serum: 61.4±70.4 mU/mL
  reticulocyte value: 29.1±4.7%
[3]; [10]
  EPO amount in serum: 64.7±92.2 mU/mL
  reticulocyte value: 28.9±4.5%
[3]; [11]
  Hb amount: 12.8 ± 0.6 g/dL
  Ht value: 38.8±2.0%
[3]; [12]
  Hb amount: 13.1 ± 0.8 g/dL
  Ht value: 40.0±2.7%
[3]; [13]
  EPO amount in serum: 22.2±32.8 mU/mL
  Hb amount: 14.1 ± 1.1 g/dL
  Ht value: 42.6±2.5%
  reticulocyte value: 27.1±2.5%
[3]; [14]
  EPO amount in serum: 37.1±31.1 mU/mL
  Hb amount: 14.0 ± 0.9 g/dL
  Ht value: 43.3±2.8%
  reticulocyte value: 30.4±4.0%
[3]; [15]
  EPO amount in serum: 57.4±23.9 mU/mL
  Hb amount: 14.0 ± 0.6 g/dL
  Ht value: 43.3±2.5%
  reticulocyte value: 23.3±3.3%
[3]; [16]
  EPO amount in serum: 69.9±37.8 mU/mL
  Hb amount: 13.8 ± 0.5 g/dL
  Ht value: 43.2±2.2%
  reticulocyte value: 26.8±7.5%
[4]
  Increasing action of EPO production (amount of EPO per protein amount): 18.2 mU/mg Protein
